Test results as given in ChEMBL document CHEMBL1201862, “PubChem BioAssay data set” (2004).
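Protocol summary: plate cells (96-well), add compound at 5 concentrations, incubate 48 h, interpolate endpoints linearly. GI50 = concentration required for 50% inhibition of growth.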 Calls of active or inactive are those of the source. No stated cut-off is given here; in the data, active = GI50 up to about 1.1 µM and inactive = higher.

What was measured:
Assay in all cases: growth of human tumour cells (NCI), 48 h
[1] = test system: HOP-62
[2] = test system: SF-295
[3] = test system: OVCAR-4
[4] = test system: KM12
[5] = test system: A498
[6] = test system: M14
[7] = test system: K562
[8] = test system: EKVX
[9] = test system: CAKI-1
[10] = test system: HOP-92
[11] = test system: MCF7
[12] = test system: OVCAR-5
[13] = test system: MOLT-4
[14] = test system: Hs-578T
[15] = test system: HL-60
[16] = test system: A549
[17] = test system: ACHN
[18] = test system: SNB-19
[19] = test system: MDA-N

Compound	GI50 [1]	GI50 [2]	GI50 [3]	GI50 [4]	GI50 [5]	GI50 [6]	GI50 [7]	GI50 [8]	GI50 [9]	GI50 [10]	GI50 [11]	GI50 [12]	GI50 [13]	GI50 [14]	GI50 [15]	GI50 [16]	GI50 [17]	GI50 [18]	GI50 [19]
O=[N+]([O-])c1cccnc1-n1cnc2ccccc21	> 100 µM (inactive)	> 100 µM (inactive)	> 100 µM (inactive)	> 100 µM (inactive)	> 100 µM (inactive)	> 100 µM (inactive)	> 100 µM (inactive)	> 100 µM (inactive)	> 100 µM (inactive)	> 100 µM (inactive)	> 100 µM (inactive)	> 100 µM (inactive)	> 100 µM (inactive)	> 100 µM (inactive)	48 µM (inactive)	> 100 µM (inactive)	–	–	–
O=C(Cn1c(C(=O)c2ccccc2)nc2ccccc21)c1ccccc1	26.5 µM (inactive)	67 µM (inactive)	96.8 µM (inactive)	> 100 µM (inactive)	> 100 µM (inactive)	> 100 µM (inactive)	–	> 100 µM (inactive)	> 100 µM (inactive)	70.5 µM (inactive)	> 100 µM (inactive)	> 100 µM (inactive)	> 100 µM (inactive)	30.5 µM (inactive)	7.1 µM (inactive)	> 96.4 µM (inactive)	> 100 µM (inactive)	> 100 µM (inactive)	–
CCCCNC(=S)Nc1nc(C(=O)NNC(=S)NCC)cs1	> 100 µM (inactive)	> 100 µM (inactive)	73.1 µM (inactive)	76.9 µM (inactive)	> 100 µM (inactive)	> 100 µM (inactive)	–	16.5 µM (inactive)	63.5 µM (inactive)	–	> 100 µM (inactive)	> 100 µM (inactive)	50.4 µM (inactive)	–	–	> 100 µM (inactive)	31.6 µM (inactive)	–	82 µM (inactive)
COc1cc(Nc2nc3cc(C(F)(F)F)ccc3nc2C)cc(OC)c1OC	16.7 µM (inactive)	1.97 µM (inactive)	16.3 µM (inactive)	6.32 µM (inactive)	3.81 µM (inactive)	7.6 µM (inactive)	5.52 µM (inactive)	16.6 µM (inactive)	7.11 µM (inactive)	0.246 µM (active)	–	13.3 µM (inactive)	6.95 µM (inactive)	–	–	> 10 µM (inactive)	8.11 µM (inactive)	–	–
Cc1ccc(S(=O)(=O)N2CC2CCCCC=O)cc1 (centres undefined)	> 100 µM (inactive)	> 100 µM (inactive)	> 100 µM (inactive)	63.1 µM (inactive)	> 100 µM (inactive)	51.3 µM (inactive)	32.6 µM (inactive)	> 100 µM (inactive)	> 100 µM (inactive)	> 100 µM (inactive)	–	> 100 µM (inactive)	37.4 µM (inactive)	44.3 µM (inactive)	–	> 100 µM (inactive)	31.3 µM (inactive)	> 100 µM (inactive)	> 100 µM (inactive)
COc1ccc2c3c([nH]c2c1)CCN(Cc1ccccc1)C3	21.8 µM (inactive)	11.5 µM (inactive)	62.8 µM (inactive)	22 µM (inactive)	15.1 µM (inactive)	16.2 µM (inactive)	21.4 µM (inactive)	42.8 µM (inactive)	–	4.35 µM (inactive)	17.5 µM (inactive)	21 µM (inactive)	24.8 µM (inactive)	24.6 µM (inactive)	17.5 µM (inactive)	62.1 µM (inactive)	31.3 µM (inactive)	21.4 µM (inactive)	–
COC(=O)C1=CC2C(=O)OC1CC2C#N (centres undefined)	> 100 µM (inactive)	> 100 µM (inactive)	> 100 µM (inactive)	> 100 µM (inactive)	> 100 µM (inactive)	> 100 µM (inactive)	> 100 µM (inactive)	–	> 100 µM (inactive)	> 100 µM (inactive)	–	–	> 100 µM (inactive)	–	> 100 µM (inactive)	> 100 µM (inactive)	> 100 µM (inactive)	> 100 µM (inactive)	–
CCCCCCCCCc1cc(-c2ccc(C=O)s2)sc1-c1ccc(C=O)s1	27.7 µM (inactive)	32.7 µM (inactive)	24.4 µM (inactive)	36.6 µM (inactive)	1.6 µM (inactive)	8.47 µM (inactive)	3.56 µM (inactive)	70.6 µM (inactive)	–	27.9 µM (inactive)	14.3 µM (inactive)	29.5 µM (inactive)	1.12 µM (inactive)	17.9 µM (inactive)	16.8 µM (inactive)	53.1 µM (inactive)	30.7 µM (inactive)	22.6 µM (inactive)	–
CCN(CC)CC(=O)Nc1c(C(N)=O)nnn1Cc1cc(Cl)c(C(=O)c2ccc(Cl)cc2)c(Cl)c1	18.6 µM (inactive)	17.4 µM (inactive)	31 µM (inactive)	18.8 µM (inactive)	37.9 µM (inactive)	16.9 µM (inactive)	17.3 µM (inactive)	27.2 µM (inactive)	22.5 µM (inactive)	20.7 µM (inactive)	17.1 µM (inactive)	19.5 µM (inactive)	16.3 µM (inactive)	14.3 µM (inactive)	15.5 µM (inactive)	22.3 µM (inactive)	29.7 µM (inactive)	34.9 µM (inactive)	–
O=C(CSCC(=O)N/N=C\c1cccc(Br)c1)N/N=C\c1cccc(Br)c1	17.4 µM (inactive)	14.9 µM (inactive)	20.1 µM (inactive)	15 µM (inactive)	–	20 µM (inactive)	18.2 µM (inactive)	27.1 µM (inactive)	17.9 µM (inactive)	18.9 µM (inactive)	33.1 µM (inactive)	18.6 µM (inactive)	21.3 µM (inactive)	18.2 µM (inactive)	30.3 µM (inactive)	14.1 µM (inactive)	13.6 µM (inactive)	46.5 µM (inactive)	–
CC1(C)OCC2(CO1)CSCCCSCC1(COC(C)(C)OC1)CSCCCSC2	> 100 µM (inactive)	> 100 µM (inactive)	> 100 µM (inactive)	> 100 µM (inactive)	–	> 100 µM (inactive)	> 100 µM (inactive)	> 100 µM (inactive)	–	> 100 µM (inactive)	> 10 µM (inactive)	> 100 µM (inactive)	> 100 µM (inactive)	–	> 100 µM (inactive)	> 100 µM (inactive)	–	> 100 µM (inactive)	> 100 µM (inactive)
CCOC(=O)C1C(=O)CC(O)(OCC)C(C(=O)OCC)C1c1ccc(OC)cc1 (centres undefined)	> 100 µM (inactive)	> 100 µM (inactive)	> 100 µM (inactive)	> 100 µM (inactive)	> 100 µM (inactive)	–	> 100 µM (inactive)	> 100 µM (inactive)	> 100 µM (inactive)	> 100 µM (inactive)	> 100 µM (inactive)	> 100 µM (inactive)	> 100 µM (inactive)	–	> 100 µM (inactive)	> 100 µM (inactive)	> 100 µM (inactive)	> 100 µM (inactive)	> 100 µM (inactive)
CN(C)CCNC(=O)c1nc([N+](=O)[O-])cn1C	> 100 µM (inactive)	> 100 µM (inactive)	> 100 µM (inactive)	> 100 µM (inactive)	> 100 µM (inactive)	> 100 µM (inactive)	> 100 µM (inactive)	–	> 100 µM (inactive)	> 100 µM (inactive)	> 100 µM (inactive)	> 100 µM (inactive)	> 100 µM (inactive)	> 100 µM (inactive)	> 100 µM (inactive)	> 100 µM (inactive)	> 100 µM (inactive)	> 100 µM (inactive)	–
Cc1nc(C(N)=S)sc1C(=O)CC(=O)C(=O)Nc1nc2ccccc2[nH]1	> 100 µM (inactive)	> 100 µM (inactive)	> 100 µM (inactive)	> 100 µM (inactive)	> 100 µM (inactive)	> 100 µM (inactive)	> 100 µM (inactive)	> 100 µM (inactive)	> 100 µM (inactive)	69.5 µM (inactive)	> 100 µM (inactive)	> 100 µM (inactive)	> 100 µM (inactive)	> 100 µM (inactive)	46.8 µM (inactive)	> 100 µM (inactive)	> 100 µM (inactive)	–	–
O=S(=O)(O)c1cc(S(=O)(=O)O)c2c(/N=N/c3ccc(S(=O)(=O)O)c4ccccc34)c(O)ccc2c1	> 100 µM (inactive)	> 100 µM (inactive)	> 100 µM (inactive)	> 100 µM (inactive)	–	> 100 µM (inactive)	> 100 µM (inactive)	> 100 µM (inactive)	> 100 µM (inactive)	> 100 µM (inactive)	–	> 100 µM (inactive)	> 100 µM (inactive)	> 100 µM (inactive)	> 100 µM (inactive)	> 100 µM (inactive)	> 100 µM (inactive)	> 100 µM (inactive)	> 100 µM (inactive)
CC(=O)C1C(=O)C(=O)N(c2ccc([N+](=O)[O-])cc2[N+](=O)[O-])C1=O (centres undefined)	> 100 µM (inactive)	> 100 µM (inactive)	> 100 µM (inactive)	> 100 µM (inactive)	–	> 100 µM (inactive)	–	56.5 µM (inactive)	> 100 µM (inactive)	> 100 µM (inactive)	> 100 µM (inactive)	> 100 µM (inactive)	> 100 µM (inactive)	> 100 µM (inactive)	> 100 µM (inactive)	> 100 µM (inactive)	> 100 µM (inactive)	> 100 µM (inactive)	–
COC[C@H]1OC(=O)c2coc3c2[C@@]1(C)C1=C(C3=O)[C@@H]2CCC(=O)[C@@]2(C)C[C@H]1OC(C)=O [WORTMANNIN]	3.05 µM (inactive)	2.96 µM (inactive)	–	11.5 µM (inactive)	–	2.15 µM (inactive)	37.2 µM (inactive)	9.66 µM (inactive)	0.0108 µM (active)	–	5.66 µM (inactive)	15 µM (inactive)	2.09 µM (inactive)	–	–	6.56 µM (inactive)	13.6 µM (inactive)	6.38 µM (inactive)	15.1 µM (inactive)
